Source: patent publication US20200129435A1, “COMPOSITION FOR DELIVERING A THERAPEUTIC AGENT AND METHODS FOR MAKING AND USING” (UVic Industry Partnerships Inc., priority 2018, published 2020)
Where two headings read alike, the source gives them in different places.

Columns and labels:
[1] = tested on: U-87 MG cells; experiment: Cell count assay (hemocytometer, Trypan Blue); assay type: cell-based, human; conditions: 40 μM ATRA in cell medium
Protocol: U-87 MG cells were provided by ATCC® and cultured in Dulbecco's Modified Eagle Medium (DMEM), high glucose (Gibco™ by Life Technologies™, Carlsbad, USA, Catalog No.: 11965084) with 10% fetal bovine serum (Gibco™ by Life Technologies™, Carlsbad, USA, Catalog No.: 12483020), 1% penicillin-streptomycin (Invitrogen/Life Technologies™, Carlsbad, USA, Catalog No.: 15140122), and 4 μg/ml puromycin at 37° C. in an atmosphere of 5% CO2. Cells were counted by hemocytometer (Bright-Line™) with two-time dilution in Trypan Blue solution (Sigma-Aldrich, St Louis, USA, Catalog No.:93595).

[2] = oral administration is the main route; cited from earlier work
[3] = tested on: U-87 MG cells; experiment: PrestoBlue cell viability assay (Example 1); assay type: cell-based, human
Protocol: Cell viability was assessed by PrestoBlue™ (Invitrogen/Life Technologies™, Carlsbad, USA, Catalog No.: A13262) assay. In this experiment, cells were first seeded in 6-well plates in a density of 6×10^4 cells/well. Viability tests were conducted at 48, 72, and 96 hours by replacing the cell media with 10% PrestoBlu™ reagent and incubating at 37° C. for 1 hour. Following, 100 μl of the incubated 10% PrestoBlue™ reagent from each well of the assay plates was transferred to a new well in a 96-well plate and read by a microplate reader (Infinite M200 Pro). Finally, viability was calculated by the following equation: […]

[4] = tested on: U-87 MG cells; experiment: Apoptosis assay, propidium iodide flow cytometry, sub-G1 population; assay type: cell-based, human; conditions: free ATRA 40 μM; 48 hours
Protocol: To determine the level of apoptosis induced by ATRA apoptosis levels were detected using propidium iodide (PI) lysis buffer and flow cytometry. […] 1% sodium citrate (Bio Basic, Markham, Canada, Catalog No.: CB0035) and 0.1% Triton X-100 (Sigma-Aldrich, Sigma-Aldrich, St. Louis, USA Catalog No.: X100) were added to distilled water to prepare an initial solution for PI lysis buffer. The pH of the solution was adjusted to 7.4 and stored.
Prior to the apoptosis assay, RNase (Sigma-Aldrich, St. Louis, USA Catalog No.: R6513) and propidium iodide (Sigma-Aldrich, St. Louis, USA Catalog No.: P4864) was added to the initial solution to reach concentrations of 0.5 mg/ml and 40 μg/ml for RNase and propidium iodide, respectively. The cell media was collected and the cells were detached with EDTA (Caledon Laboratory Chemicals, Georgetown, Canada, Catalog No.: 3460-1-65) solution. The cell suspension was centrifuged at 4° C. in 1500 g for 5 minutes. Following, the cell pellets were washed twice with 500 μl of DPBS (Gibco™ by Life Technologies™, Carlsbad, USA, Catalog No.: 14190250) 4° C. The pellets were then lysed and stained with 250 μl of PI lysis buffer, and kept at room temperature in the dark for 15-30 minutes. […] Finally, the red channel was read on the flow cytometer to determine the sub-G1 population.

[5] = tested on: U-87 MG cells; experiment: Bright field microscopy of treated cells; assay type: cell-based, human; conditions: free ATRA = 40 μM
[6] = tested on: U87 glioblastoma cells; experiment: PrestoBlue cell viability assay (Example 2); assay type: cell-based; conditions: Homo sapiens, 96-hours treatment, read-out: reduction of cell viability
Protocol: PrestoBlue™ cell viability assay was used to determine the effect of TMZ on the viability and proliferation of U87 glioblastoma cells. In this assay, metabolically active cells reduce a non-fluorescent compound (resazurin) in the PrestoBlue™ solution into a fluorescent molecule (resorufin).
In this study, U87 glioblastoma cells were seeded in a 96 well plate at 5,000 cells per well density, and a 24 well plate at 25,000 cells per well density to evaluate the cytotoxicity of free TMZ and one embodiment of the disclosed composition, respectively. The wells were then incubated for 24 hours at 37° C. with 95% relative humidity and 5% CO2. To determine the effect of the free TMZ, U87 glioblastoma cells were treated with different concentrations of the drug from 100 μM to 1000 μM in the cell medium. To study the effect of the disclosed hydrogel composition, the cells were treated with both microsphere-loaded (TMZ concentration of 100 μM) and blank meshes. Cells were incubated for 24, 48, 72, and 96 hours without changing the cell culture medium. […] Subsequently, the cell culture medium containing presto blue was transferred into a new well plate and the fluorescent intensity of each well was measured at excitation wavelength of 535 nm and emission wavelength of 615 nm by using a plate reader. Cell viability was then calculated by using equation 4 (Eq. 4): […]

Structure (SMILES) | cell population relative to control condition ([1]; 48 hours) | cell population relative to control condition ([1]; 96 hours) | half-life [2] | cell viability compared to control ([3]; 20 μM in cell medium, 96 hours) [%] | cell viability compared to control ([3]; 40 μM in cell medium, 96 hours) [%] | viability at 20 µM ([3]; Homo sapiens, U-87 MG, 48 h, 20 μM in cell medium, 48 hours, read-out: cell viability compared to control) [%] | viability at 20 µM ([3]; Homo sapiens, U-87 MG, 96 h, 20 μM in cell medium, 96 hours, read-out: cell viability compared to control) [%] | viability at 40 µM ([3]; Homo sapiens, U-87 MG, 96 h, 40 μM in cell medium, 96 hours, read-out: cell viability compared to control) [%] | apoptosis (sub-G1 population) [4] | cell morphology [5] | cytotoxicity at 100 µM ([6]; free TMZ 100 μM) [%] | cytotoxicity at 1000 µM ([6]; free TMZ 1000 μM) [%]
CC1=C(/C=C/C(C)=C/C=C/C(C)=C/C(=O)O)C(C)(C)CCC1 [ATRA, all-trans retinoic acid] | 86.0%±7.2% | 64.4%±8.6% | about 1.5 hours | 77 | 72 | 88.4 | 77.3 | 72.4 | about 2% | cell shrinkage | – | –
Cn1nnc2c(C(N)=O)ncn2c1=O [TMZ, Temozolomide] | – | – | – | – | – | – | – | – | – | – | 78 | 95
